According to patent US20030032632A1, “Pharmaceutical aerosol formulation of salmeterol and fluticasone propionate” (priority 1999, published 2003):

Experiments:
[1] = Solubility in ethanol/HFA134a and ethanol/HFA227 mixtures; assay type: physicochemical; details: mixtures of ethanol/HFA134a and ethanol/HFA227
[2] = Chemical degradation on storage in ethanol/HFA134a solution; assay type: physicochemical

Structure (SMILES) | solubility relative to racemic salmeterol xinafoate [1] | chemical degradation on storage [2]
O=C(O)c1ccc2ccccc2c1O.OCc1cc(C(O)CNCCCCCCOCCCCc2ccccc2)ccc1O (stereo not shown) [R-salmeterol xinafoate] | significantly more soluble | –
CCC(=O)O[C@]1(C(=O)SCF)[C@H](C)C[C@H]2[C@@H]3C[C@H](F)C4=CC(=O)C=C[C@]4(C)[C@@]3(F)[C@@H](O)C[C@@]21C [fluticasone propionate, (6a, 11b, 16a, 17a)-6,9-difluoro-11-hydroxy-16-methyl-3-oxo-17-(1-oxopropoxy) androsta-1,4-diene-17-carbothioic acid, S-fluoromethyl ester] | – | quite stable to chemical degradation
OCc1cc(C(O)CNCCCCCCOCCCCc2ccccc2)ccc1O (stereo not drawn) [salmeterol base, 4-hydroxy-α^1-[[[6-(4-phenylbutoxy)hexyl]amino]methyl]-1,3-benzenedimethanol] | substantially more soluble | –
OCc1cc(C(O)CNCCCCCCOCCCCc2ccccc2)ccc1O (stereo not drawn) [salmeterol, 4-hydroxy-α^1-[[[6-(4-phenylbutoxy)hexyl]amino]methyl]-1,3-benzenedimethanol] | – | shows a tendency to exhibit chemical degradation
